Data reported in patent publication US8039483B2, “Quinuclidine carbonate salts and medicinal composition thereof” (Chiesi Farmaceutici S.p.A., priority 2008, dated 2011).

How the values were obtained:
[1] = Plasma stability in rat plasma; format: in vitro ADME; conditions: 37° C.
Procedure: (§1) Briefly 10 μl of a stock solution 250 μM of compound 1 in acetonitrile were added to 1 ml of rat and human plasma, and samples were incubated at 37° C. Plasma (50 μL) was taken after 0, 1 and 5 hours of incubation and added to 140 μl of acetonitrile with addition of verapamil as internal standard (250 ng/ml). Samples were analysed by HPLC-MS/MS analysis.
(§2) Plasma stability was calculated as percentage remaining after 1 and 5 hours by dividing the peak area at 1 or 5 hours by the area of the peak at time 0. […] The other compounds of the invention behave similarly.

[2] = Plasma stability in human plasma; format: in vitro ADME; conditions: 37° C.
Procedure: as §1, §2

Measured: plasma stability, percentage remaining

O=C(OC(c1cccc(F)c1)c1cccc(F)c1)O[C@H]1C[N+]2(CC(=O)c3cccs3)CCC1CC2.[Cl-] [Compound 1, (R)-3-[Bis-(3-fluoro-phenyl)-methoxycarbonyloxy]-1-(2-oxo-2-thiophen-2-yl-ethyl)-1-azonia-bicyclo[2.2.2]octane; chloride]
less than 2%: [1]; after 1 hour of incubation | [1]; after 5 hours of incubation | [2]; after 1 hour of incubation | [2]; after 5 hours of incubation
